Assay [1] concerns A/LiaoNing-ZhenXing/1109/2010(H1N1). Nature of the assay: CPE reduction assay, LN/1109 (H1N1). The class given is cell-based. The note with it: Influenza A virus.
Assay [2] deals with A/HuNan-ZhuHui/1222/2010 (H3N2). As to the kind of experiment: CPE reduction assay, HN/1222 (H3N2). The class given is cell-based. The note with it: Influenza A virus.

This note sets out measurements from US9920088B2, “Triterpene derivative and its anti-influenza use” (Peking University, priority 2012, dated 2018).

Read-outs that look alike come from different tables or passages of the source.

Take `NC12CC3CC(CC(C3)C1)C2` [Amantadine, amantadine, reference compound]: the values for the EC50 in assay [1] (read-out: EC50) and in assay [2] (read-out: EC50) were 0.44 ± 0.14 µM and over 200 µM, respectively.
For `CC1(C)CC[C@]2(C(=O)O[C@H]3OC(CO)[C@@H](O)C(O)C3O)C(O)C[C@]3(C)C(=CC[C@@H]4[C@@]5(C)CC[C@H](O)C(C)(C)[C@@H]5CC[C@]43C)[C@@H]2C1` (stereo partly drawn) [Compound Q9, 3β,16α-dihydroxy-olean-12-en-28-oic acid-28-O-(β-D-galactoside)], in that order: 17.8 ± 12.6 µM and 25.6 ± 9.14 µM.
In the case of `CC1(C)CC[C@@]2(C(=O)N[C@H]3OC(CO)[C@@H](O)C(O)C3O)C(C1)C1=CCC3[C@@]4(C)CC[C@H](O)C(C)(C)C4CC[C@@]3(C)[C@]1(C)C[C@H]2O` (stereo partly drawn) [Compound Y2, 3β,16α-dihydroxy-olean-12-en-28-oic acid-28-N-(β-D-galactoside)], the EC50 in assay [1] (read-out: EC50) and in assay [2] (read-out: EC50) was over 22.2 µM throughout.
`CC(=O)OCC1O[C@H](NC(=O)[C@]23CCC(C)(C)CC2C2=CCC4[C@@]5(C)CC[C@H](O)C(C)(C)C5CC[C@@]4(C)[C@]2(C)CC3)C(OC(C)=O)C(OC(C)=O)[C@@H]1OC(C)=O` (stereo partly drawn) [Compound Y5, 3β-hydroxy-olean-12-en-28-oic acid-28-N-(2,3,4,6-tetra-O-acetyl-β-D-galactoside)]: the EC50 (in general, the concentration that produces a half-maximal response) came to 6.58 ± 1.17 µM in assay [1] (read-out: EC50) and 3.18 ± 0.08 µM in assay [2] (read-out: EC50).
Turning to `CCOC(=O)C1=C[C@@H](OC(CC)CC)[C@H](NC(C)=O)[C@@H](N)C1` [OSV-P, oseltamivir phosphate, reference compound], the EC50 is over 200 µM in assay [1] (read-out: EC50) and 8.75 ± 4.41 µM in assay [2] (read-out: EC50).
Regarding `NC(=O)c1ncn([C@@H]2O[C@H](CO)[C@@H](O)[C@H]2O)n1` [RBV, ribavirin, reference compound], the figures for the EC50 in assay [1] and in assay [2] were 5.75 ± 0.35 µM and 3.56 ± 0.24 µM, respectively.
